“Also recorded” adds a separate entry of the source. Like-named read-outs stand apart in the source and are kept apart here.
Tests used:
[1] = molecular target: SCN9A (Nav1.7) Na+ channel, α- and β1 subunits, in HEK293 cells (Homo sapiens, UniProt Q15858); assay: Whole-cell patch clamp, Nav1.7 peak INa in HEK293 cells (Example 1); settings: for Mean amplitude of Nav1.7 peak INa, fraction of control: −100 mV to 0 mV, 50 msec
[2] = Solubility of Ranolazine in aqueous solutions versus pH; type: physicochemical
[3] = system: endogenous TTX-S INa in ND7-23 cells; assay: cells; type: cell-based, rat DRG/mouse neuroblastoma hybrid; settings: V0, recorded in the absence of TTX
[4] = molecular target: rNav1.8 Na+ channels in ND7-23 cells (Rattus norvegicus, UniProt Q62968); assay: Whole-cell patch clamp, rNav1.8 INa in ND7-23 cells (Example 2); settings: for Use-dependent block of rNav1.8 INa: 40 pulses of 10 msec to +50 mV; for Kd: estimated from shift of steady-state inactivation curve (Bean equation)
[5] = system: CFA-induced mechanical allodynia; assay: CFA-induced mechanical allodynia, electro-von Frey withdrawal threshold; type: in vivo, Male Sprague Dawley rats
[6] = molecular target: hNav1.7+β1 subunits in HEK293 cells (Homo sapiens, UniProt Q15858); assay: Whole-cell patch clamp, hNav1.7 INa in HEK293 cells (Example 2); settings: for Kd: estimated from shift of steady-state inactivation curve (Bean equation); for IC50: IC50 value, block of Nav1.7 INa
[7] = system: hNav1.7 and rNav1.8 Na+ channels; assay: Rate of development of slow inactivation, stated for hNav1.7 and rNav1.8 together; type: cell-based; settings: 30 μM
Description: The time dependence of development of inactivation of hNav1.7 (−20 mV, FIG. 7A, n=4-5 cells) and rNav1.8 (+20 mV, FIG. 7B, n=4-5 cells) INa in the absence (▪) and presence (□) of 30 μM ranolazine is shown in FIG. 7. For control conditions, the progressive decay of currents with increasing conditioning pulse duration reflects entry of channels into inactivated states. The development of slow inactivation of hNav1.7+β1 and rNav1.8 channels could be fit with double and triple exponential functions, respectively (see Table 6, control, Development of slow inactivation).
As shown previously, (Vijayaragavan et al (2001) J. Neurosci 21:7909-18) the onset of slow inactivation of Nav1.8 channels is rapid when compared to Nav1.7 channels (˜fourfold, see Table 6, control, τF=10.78 and 43.97 msec for Nav1.8 and Nav1.7 channels, respectively). […] The time constants for development of inactivation of hNav1.7 (n=4 cells) and rNav1.8 (n=5 cells) INa with a depolarizing prepulse to −40 mV (hNav1.7) or −20 mV (rNav1.8) in the absence and presence of 30 μM ranolazine are given in Table 6.

[8] = system: CFA-induced thermal hyperalgesia; assay: CFA-induced thermal hyperalgesia, paw withdrawal latency; type: in vivo, Male Sprague Dawley rats; settings: day 3 after CFA
[9] = holding −100 mV to 0 mV, 0.1 Hz
[10] = male, Sprague Dawley, rat, in vivo, po
[11] = 10 μM, 10 sec prepulse, n=6 cells
[12] = 10 μM, 100 msec prepulse, n=4 cells
[13] = Dissociation constant for inactivated state (Kdi)
[14] = Dissociation constant for rested state (Kdr)
[15] = 10 μM, 10 sec prepulse, n=4 cells

Sequence of rNav1.8 Na+ channels in ND7-23 cells (Q62968 whole entry): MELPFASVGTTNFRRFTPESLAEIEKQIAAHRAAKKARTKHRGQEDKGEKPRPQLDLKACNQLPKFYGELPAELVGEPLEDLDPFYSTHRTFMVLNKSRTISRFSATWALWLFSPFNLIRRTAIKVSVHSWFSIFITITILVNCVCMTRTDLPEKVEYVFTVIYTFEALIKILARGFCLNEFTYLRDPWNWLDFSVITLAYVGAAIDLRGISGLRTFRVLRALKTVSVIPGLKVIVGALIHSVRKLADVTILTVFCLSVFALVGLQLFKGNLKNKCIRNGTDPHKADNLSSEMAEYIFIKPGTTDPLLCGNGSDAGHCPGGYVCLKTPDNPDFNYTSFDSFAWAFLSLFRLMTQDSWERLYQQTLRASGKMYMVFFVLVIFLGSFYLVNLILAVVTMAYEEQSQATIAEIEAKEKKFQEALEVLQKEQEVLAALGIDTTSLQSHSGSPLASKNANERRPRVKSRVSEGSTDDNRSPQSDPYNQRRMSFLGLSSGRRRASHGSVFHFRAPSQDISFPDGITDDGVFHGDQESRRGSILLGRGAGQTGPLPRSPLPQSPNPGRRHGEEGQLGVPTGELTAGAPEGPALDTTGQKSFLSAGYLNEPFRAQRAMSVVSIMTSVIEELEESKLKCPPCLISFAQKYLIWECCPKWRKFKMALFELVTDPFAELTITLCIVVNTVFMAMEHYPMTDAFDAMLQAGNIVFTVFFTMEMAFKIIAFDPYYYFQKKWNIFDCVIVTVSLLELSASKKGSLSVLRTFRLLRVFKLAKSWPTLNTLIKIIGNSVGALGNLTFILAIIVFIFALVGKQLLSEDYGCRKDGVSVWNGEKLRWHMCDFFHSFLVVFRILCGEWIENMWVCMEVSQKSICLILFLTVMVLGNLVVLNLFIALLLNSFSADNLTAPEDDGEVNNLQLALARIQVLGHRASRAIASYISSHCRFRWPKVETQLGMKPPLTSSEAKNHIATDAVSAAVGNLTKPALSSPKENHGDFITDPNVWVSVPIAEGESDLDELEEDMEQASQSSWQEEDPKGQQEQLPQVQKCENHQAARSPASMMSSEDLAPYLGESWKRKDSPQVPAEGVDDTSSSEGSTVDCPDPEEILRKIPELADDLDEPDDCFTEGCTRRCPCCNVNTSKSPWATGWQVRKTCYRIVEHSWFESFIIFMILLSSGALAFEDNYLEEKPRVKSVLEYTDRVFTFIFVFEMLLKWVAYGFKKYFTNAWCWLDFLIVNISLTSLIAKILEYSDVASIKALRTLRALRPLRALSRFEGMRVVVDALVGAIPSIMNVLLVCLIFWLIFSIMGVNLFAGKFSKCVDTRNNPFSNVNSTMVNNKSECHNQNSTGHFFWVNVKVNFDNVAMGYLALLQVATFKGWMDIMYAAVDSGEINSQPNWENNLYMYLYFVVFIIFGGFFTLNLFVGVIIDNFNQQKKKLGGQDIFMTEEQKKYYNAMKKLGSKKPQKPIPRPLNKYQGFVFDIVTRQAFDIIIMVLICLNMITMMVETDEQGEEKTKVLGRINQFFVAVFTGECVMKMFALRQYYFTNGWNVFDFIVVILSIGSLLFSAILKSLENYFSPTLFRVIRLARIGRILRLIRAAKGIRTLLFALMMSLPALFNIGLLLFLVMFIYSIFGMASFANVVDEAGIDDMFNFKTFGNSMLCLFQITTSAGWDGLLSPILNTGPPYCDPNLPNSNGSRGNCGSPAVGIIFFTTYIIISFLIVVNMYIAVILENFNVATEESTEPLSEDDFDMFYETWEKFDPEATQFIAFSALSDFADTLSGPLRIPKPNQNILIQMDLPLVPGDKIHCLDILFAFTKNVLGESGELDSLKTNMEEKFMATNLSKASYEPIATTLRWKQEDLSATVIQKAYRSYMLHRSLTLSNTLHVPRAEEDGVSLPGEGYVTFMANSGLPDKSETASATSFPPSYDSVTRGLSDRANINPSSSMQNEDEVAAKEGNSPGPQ
Sequence of hNav1.7+β1 subunits in HEK293 cells (Q15858 whole entry): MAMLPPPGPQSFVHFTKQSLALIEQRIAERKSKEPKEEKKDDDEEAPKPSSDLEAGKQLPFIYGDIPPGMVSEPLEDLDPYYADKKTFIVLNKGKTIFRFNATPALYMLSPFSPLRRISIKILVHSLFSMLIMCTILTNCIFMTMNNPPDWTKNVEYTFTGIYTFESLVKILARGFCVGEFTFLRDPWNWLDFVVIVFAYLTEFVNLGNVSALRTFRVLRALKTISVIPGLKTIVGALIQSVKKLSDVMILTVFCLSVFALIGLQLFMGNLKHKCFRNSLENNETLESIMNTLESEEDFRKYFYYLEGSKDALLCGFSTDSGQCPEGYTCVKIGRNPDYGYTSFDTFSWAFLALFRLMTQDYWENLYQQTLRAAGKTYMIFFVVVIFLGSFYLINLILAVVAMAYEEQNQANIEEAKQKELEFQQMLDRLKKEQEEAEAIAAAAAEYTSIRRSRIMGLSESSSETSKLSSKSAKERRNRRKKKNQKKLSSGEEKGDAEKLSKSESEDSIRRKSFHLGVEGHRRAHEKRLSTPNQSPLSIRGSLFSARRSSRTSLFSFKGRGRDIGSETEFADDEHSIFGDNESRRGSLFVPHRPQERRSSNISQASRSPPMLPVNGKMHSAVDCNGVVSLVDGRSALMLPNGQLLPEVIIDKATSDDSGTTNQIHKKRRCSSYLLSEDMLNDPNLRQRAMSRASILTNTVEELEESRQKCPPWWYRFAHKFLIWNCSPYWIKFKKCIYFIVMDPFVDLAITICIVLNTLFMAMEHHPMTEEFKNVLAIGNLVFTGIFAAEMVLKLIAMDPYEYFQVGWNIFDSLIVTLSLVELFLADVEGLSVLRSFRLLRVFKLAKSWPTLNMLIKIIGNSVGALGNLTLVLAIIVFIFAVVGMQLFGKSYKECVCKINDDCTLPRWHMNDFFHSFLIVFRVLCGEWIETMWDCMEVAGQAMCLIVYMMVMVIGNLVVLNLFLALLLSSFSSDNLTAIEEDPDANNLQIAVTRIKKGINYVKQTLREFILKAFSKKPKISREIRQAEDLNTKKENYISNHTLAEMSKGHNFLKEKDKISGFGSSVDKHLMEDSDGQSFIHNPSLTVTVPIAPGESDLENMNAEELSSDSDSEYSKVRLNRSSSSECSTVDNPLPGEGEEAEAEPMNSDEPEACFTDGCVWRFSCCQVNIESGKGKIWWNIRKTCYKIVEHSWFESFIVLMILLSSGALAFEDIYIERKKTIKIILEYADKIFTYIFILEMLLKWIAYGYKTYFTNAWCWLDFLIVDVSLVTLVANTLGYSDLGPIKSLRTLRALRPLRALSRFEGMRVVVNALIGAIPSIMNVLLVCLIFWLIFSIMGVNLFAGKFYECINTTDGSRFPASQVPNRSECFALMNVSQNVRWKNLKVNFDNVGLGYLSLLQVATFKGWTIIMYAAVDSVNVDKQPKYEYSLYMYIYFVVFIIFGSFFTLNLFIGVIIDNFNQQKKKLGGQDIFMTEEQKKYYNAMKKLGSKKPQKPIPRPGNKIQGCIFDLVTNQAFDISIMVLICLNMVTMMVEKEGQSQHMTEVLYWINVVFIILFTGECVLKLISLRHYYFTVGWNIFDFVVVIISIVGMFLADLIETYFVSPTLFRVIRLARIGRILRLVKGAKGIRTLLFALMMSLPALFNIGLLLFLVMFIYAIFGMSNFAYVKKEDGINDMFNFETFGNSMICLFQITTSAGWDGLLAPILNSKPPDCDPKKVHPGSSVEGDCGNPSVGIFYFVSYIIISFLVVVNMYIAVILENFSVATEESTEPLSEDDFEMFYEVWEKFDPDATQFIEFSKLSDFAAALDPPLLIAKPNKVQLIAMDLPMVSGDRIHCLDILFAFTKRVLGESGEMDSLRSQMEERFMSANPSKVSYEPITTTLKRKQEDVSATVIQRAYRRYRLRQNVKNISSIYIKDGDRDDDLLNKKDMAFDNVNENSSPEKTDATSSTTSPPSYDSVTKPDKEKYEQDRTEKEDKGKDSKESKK
Sequence of hNav1.7+β1 subunits in HEK293 cells (Q07699 19-218 partner): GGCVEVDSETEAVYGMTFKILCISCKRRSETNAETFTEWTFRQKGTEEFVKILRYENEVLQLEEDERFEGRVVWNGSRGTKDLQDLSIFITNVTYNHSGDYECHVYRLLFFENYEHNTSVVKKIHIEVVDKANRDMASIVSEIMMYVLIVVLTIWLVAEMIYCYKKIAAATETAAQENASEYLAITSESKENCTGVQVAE
Sequence of SCN9A (Nav1.7) Na+ channel, α- and β1 subunits, in HEK293 cells (Q15858 whole entry): as the sequence (Q15858 whole entry) above
Sequence of SCN9A (Nav1.7) Na+ channel, α- and β1 subunits, in HEK293 cells (Q07699 19-218 partner): as the sequence (Q07699 19-218 partner) above

Structure (SMILES): COc1ccccc1OCC(O)CN1CCN(CC(=O)Nc2c(C)cccc2C)CC1 (racemic) [Ranolazine, (±)-N-(2,6-dimethylphenyl)-4-[2-hydroxy-3-(2-methoxyphenoxy)-propyl]-1-piperazineacetamide]
- Mean amplitude of Nav1.7 peak INa, fraction of control ([1]; 1 μM, 0.1 Hz): 0.9114
- Mean amplitude of Nav1.7 peak INa, fraction of control ([1]; 3 μM, 0.1 Hz): 0.7275
- Mean amplitude of Nav1.7 peak INa, fraction of control ([1]; 10 μM, 0.1 Hz): 0.4692
- Mean amplitude of Nav1.7 peak INa, fraction of control ([1]; 30 μM, 0.1 Hz): 0.327
- Block of Nav1.7 peak INa at end of pulse train (pulse 40) ([1]; 100 μM, 40 pulses −100 to 0 mV, 2, 5, 20 or 200 msec, 5 Hz): ~82.72±0.71%
- p of logistic fit (Hill coefficient nH) for block of Nav1.7 peak INa [1, 9]: 0.8368
- x0 of logistic fit (IC50) for block of Nav1.7 peak INa [1, 9]: 10.3585 μM
- USP Solubility Class ([2]; Solution pH 4.81): Freely Soluble
- USP Solubility Class ([2]; Solution pH 4.89): Soluble
- USP Solubility Class ([2]; Solution pH 4.90): Soluble
- USP Solubility Class ([2]; Solution pH 5.04): Soluble
- USP Solubility Class ([2]; Solution pH 5.35): Sparingly Soluble
- USP Solubility Class ([2]; Solution pH 5.82): Slightly soluble
- USP Solubility Class ([2]; Solution pH 6.46): Slightly soluble
- USP Solubility Class ([2]; Solution pH 6.73): Very slightly soluble
- USP Solubility Class ([2]; Solution pH 7.08): Very slightly soluble
- USP Solubility Class ([2]; Solution pH 7.59 (unbuffered water)): Very slightly soluble
- USP Solubility Class ([2]; Solution pH 7.79): Very slightly soluble
- USP Solubility Class ([2]; Solution pH 12.66): Very slightly soluble
- IC50 ([3]; ND7/23, read-out: IC50 value, block of TTX-S INa): 9.05 ± 0.56 µM
- Hill Coefficient, block of TTX-S INa [3]: [1.15 ± 0.08]
- Death (Male Sprague Dawley rats; doses of 100 mg/kg (i.p.)): 50%
- Doses at which adverse effects were noted (Male Sprague Dawley rats; male, Sprague Dawley, rat, in vivo, ip): ≥ 100 mg/kg
- Time of onset of adverse pulmonary event after drug administration (Male Sprague Dawley rats; [10]): approximately 1 hour
- Time to resolution of adverse pulmonary effect after gavage (Male Sprague Dawley rats; [10]): ≤ 24 h
- Adverse event (Male Sprague Dawley rats; rat, in vivo, po): respiratory strider
- IC50 [4]: 21.5 ± 3.01 µM
- Inactivation V1/2 (steady-state intermediate, 1 sec prepulse) ([4]; 1 μM): −42.75 ± 3.93 mV
- Inactivation slope factor K (1 sec prepulse) ([4]; 1 μM): 7.38 ± 0.93 mV/e-fold
- Inactivation V1/2 (steady-state intermediate, 1 sec prepulse) ([4]; 3 μM): −47.61 ± 4.56 mV
- Inactivation slope factor K (1 sec prepulse) ([4]; 3 μM): 7.14 ± 0.61 mV/e-fold
- Activation V1/2 ([4]; 10 μM): 4.71 ± 2.58 mV
- Activation slope factor K ([4]; 10 μM): 8.55 ± 1.62 mV/e-fold
- Inactivation V1/2 (steady-state intermediate, 1 sec prepulse) ([4]; 10 μM): −57.88 ± 5.73 mV
- Inactivation slope factor K (1 sec prepulse) ([4]; 10 μM): 7.59 ± 0.79 mV/e-fold
- V1/2 of steady-state slow inactivation [4, 11]: −54.57±3.69
- k of steady-state slow inactivation [4, 11]: 8.38±0.76
- V1/2 of steady-state fast inactivation [4, 12]: −40.66±3.23
- k of steady-state fast inactivation [4, 12]: 11.45±1.21
- Inactivation V1/2 (steady-state intermediate, 1 sec prepulse) ([4]; 30 μM): −59.52 ± 2.18 mV
- Inactivation slope factor K (1 sec prepulse) ([4]; 30 μM): 7.59 ± 1.09 mV/e-fold
- Use-dependent block of rNav1.8 INa ([4]; 30 μM, 1 Hz): 60.20±2.04%
- Use-dependent block of rNav1.8 INa ([4]; 30 μM, 5 Hz): 67.96±4.68%
- Use-dependent block of rNav1.8 INa ([4]; 30 μM, 10 Hz): 70.16±2.09%
- Development of slow inactivation, AF ([4]; 30 μM, at +20 mV): 0.53 ± 0.07
- Development of slow inactivation, AI ([4]; 30 μM, at +20 mV): 0.25 ± 0.07
- Development of slow inactivation, AS ([4]; 30 μM, at +20 mV): 0.09 ± 0.02
- Development of slow inactivation, τF ([4]; 30 μM, at +20 mV): 5.59 ± 1.08 ms
- Development of slow inactivation, τI ([4]; 30 μM, at +20 mV): 34.11 ± 14.14 ms
- Development of slow inactivation, τS ([4]; 30 μM, at +20 mV): 703.24 ± 373.82 ms
- Time constant of INa decay (single exponential) ([4]; 30 μM, at +20 mV, n=4 cells): 1.60 ± 0.04 ms
- Development of slow inactivation, AF ([4]; 30 μM, at −20 mV): 0.52 ± 0.05
- Development of slow inactivation, AI ([4]; 30 μM, at −20 mV): 0.30 ± 0.06
- Development of slow inactivation, AS ([4]; 30 μM, at −20 mV): 0.18 ± 0.03
- Development of slow inactivation, τF ([4]; 30 μM, at −20 mV): 22.75 ± 2.31 ms
- Development of slow inactivation, τI ([4]; 30 μM, at −20 mV): 98.08 ± 13.65 ms
- Development of slow inactivation, τS ([4]; 30 μM, at −20 mV): 1203.00 ± 337.50 ms
- Steady-state use-dependent block of rNav1.8 INa ([4]; 100 μM, 3, 5, 20 or 200 msec pulses to +50 mV, 5 Hz): 71.69±0.85%
- Kd [4, 13]: 0.64 µM
- Kd [4, 14]: 22.8 µM
- IC50 ([4]; IC50 value, block of Nav1.8 INa, V0.5, holding potential −40 mV): 4.33 ± 0.52 µM
- Hill Coefficient, block of Nav1.8 INa ([4]; V0, holding potential −100 mV): [0.90 ± 0.11]
- Hill Coefficient, block of Nav1.8 INa ([4]; V0.5, holding potential −40 mV): [0.89 ± 0.09]
- Effect on mechanical allodynia (paw sensitivity to mechanical stimulation) ([5]; i.p. 10, 20, 50 mg/kg, 30 minutes after dosing, day 3 after CFA): clearly reduced paw sensitivity to mechanical stimulation in a dose-dependent fashion; also recorded: dose dependent reduction in mechanical allodynia
- Dose at which maximum analgesic response was achieved ([5]; oral gavage, plateau to the analgesic response): 100 mg/kg
- Analgesic effect at highest oral dose ([5]; p.o. 200 mg/kg): non-significant trend toward a reduction in analgesic effect
- Effect on mechanical allodynia ([5]; p.o. 20, 50, 100, 200 mg/kg, 1 hour after gavage, day 3 after CFA): dose dependent reduction in mechanical allodynia
- Optimum oral dosing for reduction of mechanical allodynia ([5]; p.o., no additional benefit at higher doses (FIG. 11 legend)): 50 mg/kg
- Inactivation V1/2 (steady-state intermediate, 1 sec prepulse) ([6]; 1 μM): −78.97 ± 3.09 mV
- Inactivation slope factor k (1 sec prepulse) ([6]; 1 μM): 4.80 ± 0.21 mV/e-fold
- Inactivation V1/2 (steady-state intermediate, 1 sec prepulse) ([6]; 3 μM): −84.44 ± 3.64 mV
- Inactivation slope factor k (1 sec prepulse) ([6]; 3 μM): 4.76 ± 0.11 mV/e-fold
- Activation V1/2 ([6]; 10 μM): −33.96 ± 2.06 mV
- Activation slope factor k ([6]; 10 μM): 4.77 ± 0.32 mV/e-fold
- Inactivation V1/2 (steady-state intermediate, 1 sec prepulse) ([6]; 10 μM): −86.99 ± 2.86 mV
- Inactivation slope factor k (1 sec prepulse) ([6]; 10 μM): 4.56 ± 0.1 mV/e-fold
- V1/2 of steady-state slow inactivation [6, 15]: −61.39±3.54
- k of steady-state slow inactivation [6, 15]: 14.22±2.14
- V1/2 of steady-state fast inactivation [6, 12]: −86.15±3.62
- k of steady-state fast inactivation [6, 12]: 7.55±0.82
- Inactivation V1/2 (steady-state intermediate, 1 sec prepulse) ([6]; 30 μM): −89.07 ± 5.41 mV
- Inactivation slope factor k (1 sec prepulse) ([6]; 30 μM): 5.15 ± 0.31 mV/e-fold
- Development of slow inactivation, AF ([6]; 30 μM, at −20 mV): 0.24 ± 0.02
- Development of slow inactivation, AS ([6]; 30 μM, at −20 mV): 0.56 ± 0.01
- Development of slow inactivation, τF ([6]; 30 μM, at −20 mV): 9.14 ± 2.49 ms
- Development of slow inactivation, τS ([6]; 30 μM, at −20 mV): 1657.71 ± 180.23 ms
- Time constant of INa decay (single exponential) ([6]; 30 μM, at −20 mV, n=4 cells): 0.68 ± 0.15 ms
- Development of slow inactivation, AF ([6]; 30 μM, at −40 mV): 0.30 ± 0.02
- Development of slow inactivation, AS ([6]; 30 μM, at −40 mV): 0.67 ± 0.02
- Development of slow inactivation, τF ([6]; 30 μM, at −40 mV): 23.99 ± 2.92 ms
- Development of slow inactivation, τS ([6]; 30 μM, at −40 mV): 1845.75 ± 129.03 ms
- Kd [6, 13]: 0.47 µM
- Kd [6, 14]: 12.1 µM
- IC50 ([6]; V0, holding potential −120 mV): 10.4 ± 1.25 µM
- IC50 ([6]; V0.5, holding potential −70 mV): 3.25 ± 0.17 µM
- Hill Coefficient, block of Nav1.7 INa ([6]; V0, holding potential −120 mV): [0.84 ± 0.09]
- Hill Coefficient, block of Nav1.7 INa ([6]; V0.5, holding potential −70 mV): [1.33 ± 0.08]
- Rate of development of slow inactivation, faster than control ([7]; −20 mV (hNav1.7), +20 mV (rNav1.8)): 2-5 fold
- Rate of development of slow inactivation, faster than control ([7]; −40 mV (hNav1.7), −20 mV (rNav1.8)): 4-10 fold
- Effect on paw withdrawal from thermal stimulation ([8]; i.p. 10, 20, 50 mg/kg, 30 minutes after dosing): no significant effect on paw sensitivity was observed; also recorded: no significant effect of treatment on paw withdrawal from thermal stimulation
- Effect on paw withdrawal from thermal stimulation ([8]; p.o. 20, 50, 100, 200 mg/kg, 1 hour after gavage): no significant effect of treatment on paw withdrawal from thermal stimulation
